Results taken from patent US20250120932A1, “PHARMACEUTICAL COMPOSITION” (NEUROPRO THERAPEUTICS, INC., priority 2021, published 2025).

How the values were obtained:
Caco-2 cells = assay: in vitro
Procedure: (§1) Caco-2 cells purchased from ATCC were seeded onto […] (PET) in 96-well Corning Insert plates at 1×10^5 cells/cm^2, and refreshed medium every 4˜5 days until to the 21st to 28th day for confluent cell monolayer formation.
(§2) The transport buffer in the study was HBSS with 10.0 mM HEPES at pH 7.40±0.05. Test compound was tested at 2.00 μM bi-directionally in duplicate. Digoxin was tested at 10.0 μM bi-directionally in duplicate, while nadolol and metoprolol were tested at 2.00 μM in A to B direction in duplicate. Final DMSO concentration was adjusted to less than 1%. The plate was incubated for 2 hours in CO2 incubator at 37±1° C., with 5% CO2 at saturated humidity without shaking. And all samples after mixed with acetonitrile containing internal standard were centrifuged at 3200×g for 10 min. For nadolol and metoprolol, 200 μL supernatant solution was diluted with 600 μL ultra-pure water for LC-MS/MS analysis. For digoxin and test compounds, 200 μL supernatant solution was diluted with 200 μL ultra-pure water for LC-MS/MS analysis. Concentrations of test and control compounds in starting solution, donor solution, and receiver solution were quantified by LC-MS/MS methodologies, using peak area ratio of analyte/internal standard. After transport assay, lucifer yellow rejection assay was applied to determine the Caco-2 cell monolayer integrity.
(§3) The apparent permeability coefficient Papp (cm/s) was calculated using the equation: […]
(§4) Where dCp/dt is the cumulative concentration of compound in the receiver chamber as a function of time (μM/s); Vr is the solution volume in the receiver chamber (0.075 mL on the apical side, 0.25 mL on the basolateral side); A is the surface area for the transport, i.e. 0.0804 cm^2 for the area of the monolayer; Co is the initial concentration in the donor chamber (μM). The efflux ratio was calculated using the equation: […]
(§5) Percent recovery was calculated using the equation: […]
(§6) Where Vd is the volume in the donor chambers (0.075 mL on the apical side, 0.25 mL on the basolateral side); Ca and Cr are the final concentrations of transport compound in donor and receiver chambers, respectively.

in vitro = conditions: human; for recovery at 2 h: Caco-2, pH 7.4, Mean % Solution Recovery A to B
Procedure: as §1, §2, §3, §4, §5, §6

[1] = Oral SEDDS-formulated versus unformulated Bumetanide amides in rats, blood concentration; format: in vivo; conditions: male rats
Procedure: SEDDS-formulated and unformulated Bumetanide Morpholinoamide and Bumetanide Diethylamide were orally administered to rats. The experiment was conducted as described previously in regards to Bumetanide Dibenzylamide. Three male and three female rats at each time point for each of the SEDDS and non-SEDDS treatments were used. […] As this appeared to be experimental error, all female rats were removed from the data.

[2] = LogP (octanol:water partition coefficient)
Source text: Crucial to the efficacy of any treatment by a pharmaceutical composition is the overall systemic bioavailability of the pharmaceutical composition used for said treatment. […] LogP is one measure of lipophyilicity, and is the octal:water partition coefficient expressed as a log ratio of molecule in octanol relative to water after mixing.

[3] = Pharmacokinetic study in cynomolgus monkeys after oral (nasogastric) gavage, sublingual and intravenous administration; format: in vivo; conditions: monkeys, after SL dosing of Bumetanide Dibenzylamide
Procedure: A pharmacokinetic study was done in cynomolgus monkeys following single oral (nasogastric) gavage, sublingual, and intravenous administration. […] Calibration curves, blanks, and analytical QCs were prepared in monkey plasma (K2EDTA). The extracts were evaporated to dryness, reconstituted, and then analyzed by LC-MS/MS. The calibration range was 0.250-250 ng/mL for both analytes.
If the criteria for either the calibration curve or the analytical QCs were not met, the analytical run was rejected. […] No deviations were found during the bioanalytical phase of the study conducted by Origin. Calibration curves were derived from the individual analyte to internal standard peak area ratios using the least squared regression of the ratio versus the nominal concentration of the calibration standard, prepared in duplicate. The regression was then used to back-calculate the concentration of each calibration standard, QC sample and study sample. […] Analyst® Software Version 1.6.3 (Applied Biosystems-MDS Sciex), operated with Windows® (Microsoft), was used for instrument control, data acquisition, and peak integrations. Peak area ratios, standard curve regressions, and sample concentration/accuracy values were calculated with Analyst® Software Version 1.6.3. Other results (e.g., mean statistics) were calculated with Excel® (Microsoft).
There was no apparent sex difference for the second formulation. […] A fourth formulation comprising the composition B listed in Table 54 was also administered in monheys.

[4] = Oral delivery of unformulated Bumetanide Dibenzylamide in Beagle dogs, pharmacokinetics and bioavailability; format: in vivo; conditions: oral non-formulated Bumetanide Dibenzylamide
[5] = Caco-2, pH 7.4, Mean Papp (10^−6 cm/s) A to B
[6] = human, Caco-2, 2 h, 10 μM, pH 7.4

In the case of `COCCc1ccc(OCC(O)CNC(C)C)cc1` (stereo not drawn) [metoprolol, reference compound], the “Mean % Solution Recovery A to B” value (Caco-2 cells; human, Caco-2, 2 h, pH 7.4) is reported as 95.7%, the recovery at 2 h (in vitro) is reported as 94.7% and the Papp A→B at 2 h (in vitro; [5]) is reported as 19.2 ×10⁻⁶ cm/s. For the same compound, the Papp A→B at 2 h (in vitro; Caco-2, pH 7.4, Rank Papp) was > 2.5 ×10⁻⁶ cm/s.
For `CCCCNc1cc(C(=O)N2CCOCC2)cc(S(N)(=O)=O)c1Oc1ccccc1` [Bumetanide Morpholinoamide], the “blood concentration by 24 hrs” value [1] was “no detectable concentration”.
For `CC(C)(C)NCC(O)COc1cccc2c1CC(O)C(O)C2` (stereo not drawn) [nadolol, reference compound], the “Mean % Solution Recovery A to B” value (Caco-2 cells; human, Caco-2, 2 h, pH 7.4) was 98.5%, the recovery at 2 h (in vitro) was 97% and the Papp A→B at 2 h (in vitro; [5]) was 0.0983 ×10⁻⁶ cm/s. The Papp A→B at 2 h (in vitro; Caco-2, pH 7.4, Rank Papp) was < 0.5 ×10⁻⁶ cm/s.
For `C[C@H]1O[C@@H](O[C@H]2[C@@H](O)C[C@H](O[C@H]3[C@@H](O)C[C@H](O[C@H]4CC[C@@]5(C)[C@H](CC[C@@H]6[C@@H]5C[C@@H](O)[C@]5(C)[C@@H](C7=CC(=O)OC7)CC[C@]65O)C4)O[C@@H]3C)O[C@@H]2C)C[C@H](O)[C@@H]1O` [Digoxin, reference compound], the “Rank Efflux Transporter Substrate” value (Caco-2 cells; Caco-2) was “Likely”, the “Efflux Ratio” value (Caco-2 cells; [6]) was 800 and the “Mean % Solution Recovery B to A” value (Caco-2 cells; [6]) was 103.4%. For the same compound, the “Mean % Solution Recovery A to B” value (Caco-2 cells; human, Caco-2, 2 h, pH 7.4) was 97.4%, the efflux ratio at 2 h, 10 μM (in vitro; Caco-2, pH 7.4, Efflux Ratio) was 586 and the recovery at 2 h (in vitro) was 94.7%. The recovery at 2 h, 10 μM (in vitro; Caco-2, pH 7.4, Mean % Solution Recovery B to A) was 108%, the Papp A→B at 2 h (in vitro; [5]) was 0.0223 ×10⁻⁶ cm/s and the Papp B→A at 2 h, 10 μM (in vitro; Caco-2, pH 7.4, Mean Papp (10^−6 cm/s) B to A) was 13.1 ×10⁻⁶ cm/s. The Papp A→B at 2 h (in vitro; Caco-2, pH 7.4, Rank Papp) was < 0.5 ×10⁻⁶ cm/s.
For `CCCCNc1cc(C(=O)N(CC)CC)cc(S(N)(=O)=O)c1Oc1ccccc1` [Bumetanide Diethylamide], the logP ([2]; octanol:water partition coefficient) was 3.11, the “Mean % Solution Recovery A to B” value (Caco-2 cells; Caco-2, A to B, second Table 73 (diethylamide run)) was 77.4% and the “Mean Papp (10^−6 cm/s) A to B” value (Caco-2 cells; Caco-2, A to B, test compound 2.00 μM (digoxin 10.0 μM), 2 hours, HBSS pH 7.40, second Table 73 (diethylamide run)) was 1.33 10^−6 cm/s. The “Efflux Ratio” value (Caco-2 cells; Caco-2, B to A / A to B, second Table 73 (diethylamide run)) was 31.6, the “Mean % Solution Recovery B to A” value (Caco-2 cells; Caco-2, B to A, second Table 73 (diethylamide run)) was 88.5% and the “Mean Papp (10^−6 cm/s) B to A” value (Caco-2 cells; Caco-2, B to A, test compound 2.00 μM (digoxin 10.0 μM), 2 hours, HBSS pH 7.40, second Table 73 (diethylamide run)) was 42.0 10^−6 cm/s. The “Rank Efflux Transporter Substrate” value (Caco-2 cells; Caco-2 efflux ratio rank, second Table 73 (diethylamide run)) was “Likely” and the “Rank Papp” value (Caco-2 cells; Caco-2 permeability rank, second Table 73 (diethylamide run)) was “Moderate (Moderate permeability: 0.500<Papp<2.50 (×10^−6 cm/s))”.
In the case of `CCCCNc1cc(C(=O)N2CCOCC2)cc(S(N)(=O)=O)c1Oc1ccccc1` [Bumetanide morpholinoamide unformulated], the “Efflux Ratio” value (Caco-2 cells; Caco-2) is reported as 43.8, the “Mean % Solution Recovery A to B” value (Caco-2 cells; Caco-2) is reported as 87.4% and the “Mean % Solution Recovery B to A” value (Caco-2 cells; Caco-2) is reported as 99.6%. For the same compound, the “Rank Efflux Transporter Substrate” value (Caco-2 cells; Caco-2) was “Likely”, the “Mean Papp (10^−6 cm/s) A to B” value (Caco-2 cells; Caco-2, pH 7.4) was 0.709 10^−6 cm/s and the “Mean Papp (10^−6 cm/s) B to A” value (Caco-2 cells; Caco-2, pH 7.4) was 31.0 10^−6 cm/s.
In the case of `CCCCNc1cc(C(=O)O)cc(S(N)(=O)=O)c1Oc1ccccc1` [Bumetanide, reference compound], the “plasma concentrations of Bumetanide” value [3] is reported as “no measurable concentrations”, the Bumetanide levels [4] is reported as “not measureable” and the logP [2] is reported as ~2.61.
With `CCCCNc1cc(C(=O)N(Cc2ccccc2)Cc2ccccc2)cc(S(N)(=O)=O)c1Oc1ccccc1` [Bumetanide Dibenzylamide unformulated] the “Efflux Ratio” value (Caco-2 cells; Caco-2) was >0.825, the “Mean % Solution Recovery A to B” value (Caco-2 cells; Caco-2) was <4.9% and the “Mean % Solution Recovery B to A” value (Caco-2 cells; Caco-2) was 25.4%. For the same compound, the “Rank Efflux Transporter Substrate” value (Caco-2 cells; Caco-2) was “Poor or non-”, the “Mean Papp (10^−6 cm/s) A to B” value (Caco-2 cells; Caco-2, pH 7.4) was <0.480 10^−6 cm/s and the “Mean Papp (10^−6 cm/s) B to A” value (Caco-2 cells; Caco-2, pH 7.4) was 0.396 10^−6 cm/s.
